Results on twelve compounds are retold here after patent publication US8410116B2, “Bis(styryl)pyrimidine or bis(styryl)benzene compounds, pharmaceutically acceptable salts thereof, preparation method thereof, and pharmaceutical composition for prevention or treatment of diseases featuring amyloids comprising the same as an active ingredient” (Korea Institute of Science and Technology, priority 2009, dated 2013).

For data set [1], the system named is HT-22 cells incubated with beta amyloid (Aβ25-35). The experiment in a line: Alleviating effect on beta amyloid toxicity in HT-22 cells (MTT). Conditions: Mus musculus, compound pre-incubated 1 hr, then 25 μM beta amyloid (Aβ25-35) for 18 hrs, Aβ25-35 line = toxin alone, read-out: Cell Survival (%). In kind it is cell-based, murine. As to the method:
(§1) The murine hippocampal neuronal cell line HT-22 was incubated at 37° C. in DMEM (Dulbecco's Modified Eagle's Medium) supplemented with 10% FBS (fetal bovine serum) and 1% penicillin/streptomycin in a 5% CO2 incubator. Before testing, HT-22 cells were seeded at a density of 5×10^3 cells/well onto 96-well plates containing serum-free DMEM and incubated for 1 hr. Afterwards, each of the compounds of Examples 1 to 27 was added at a concentration of 25 μM to each well before incubation for 18 hrs. 5 mg/ml MTT (3-(4,5-dimethyl-2-thiozolyl)-2,5-diphenyl-2H-tetrazolium bromide) solution was added in an amount of 15 μl per well and incubated for 4 hrs. A solubilization solution (10% SDS, 50% dimethylformamide, pH 4.7) was added in an amount of 100 μl to each well, followed by incubation for 18 hrs. Absorbance at 570 nm/630 nm was read on a microplate reader.
The following experiment was performed in order to examine the ability of the compounds of the Examples in accordance with the present invention to alleviate beta amyloid toxicity. HT-22 cells were cultured and incubated with the compounds of Examples 1 to 27 for 1 hr in the same manner as in Example 2. Cell necrosis was induced by beta amyloid toxicity. For this, the cells were incubated with 25 μM of beta amyloid (Aβ25-35) for 18 hrs. Subsequently, a 5 mg/ml MTT solution was added in an amount of 15 μl to each well, followed by incubation for 4 hrs. Then, the cells were again incubated for 18 hrs with 100 μl/well of the solubilization solution. Absorbance at 570 nm/630 nm was read on a microplate reader.

The next data set has as its target beta amyloid (1-42) (Homo sapiens, UniProt P05067). Description: Inhibitory activity against beta amyloid fibril formation (ThT fluorescence). In kind it is biochemical. Conditions: for remaining activity at 10 µM: compound 10 μM, beta amyloid (1-42) 25 μM, 1 hr room temperature, beta amyloid alone (control) = 100. As for the experimental part: The compounds of the present invention were assayed for inhibitory activity against the formation of beta amyloid fibrils as a function of ThT fluorescence intensity as follows. Beta amyloid (1-42) and each of the compounds of Examples 1 to 27 were dissolved in DMSO and diluted with PBS (phosphate-buffered saline, pH 7.4). The final concentrations of beta amyloid (1-42) (control) and each of the compounds of Examples 1 to 27 were set at 25 μM and 10 μM, respectively. The dilutions were incubated at room temperature for 1 hr before a solution of thioflavin T (ThT, 5 μM, pH 8.5) in glycin-NaOH buffer was added thereto. Fluorescence was measured at 450 nm for excitation (slit 10 nm) and […] for emission (slit 10 nm) on 96-well microplates using a multilabel fluorescence counter.

The subject of another data set is HT-22 cells. Description: Cytotoxicity in HT-22 cell (MTT). In kind it is cell-based, murine. To be noted: compound 25 μM, 18 hrs. As to the method: The following experiment was performed with HT-22 cells in order to examine the cytotoxicity of the compounds of the Examples in accordance with the present invention.
as §1

The remaining activity is what remains of the control signal, in per cent. Low readings indicate little activity left, high ones much activity left.

Sequence of beta amyloid (1-42) (P05067 672-713 limits assumed): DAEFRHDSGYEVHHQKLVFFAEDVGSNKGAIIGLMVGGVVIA

Consider `COc1cc(/C=C/c2cc(/C=C/c3ccc(O)c(OC)c3)nc(SC)n2)ccc1O` [Ex. 16, 2-methylthio-(E,E)-4,6-bis(4′-hydroxy-3′-methoxystyryl)pyrimidine], for which the viability at 25 µM in data set [1] amounted to 49 ± 4.2%. The same compound displayed a remaining activity at 10 µM on beta amyloid (1-42) of 32.4 ± 12.5%. For the same compound, in the data set on HT-22 cells, the “Cell Survival (%)” value is 79.0 ± 7.9%.

With `COc1nc(/C=C/c2ccc(O)c(N(C)C)c2)cc(/C=C/c2ccc(O)c(N(C)C)c2)n1` [Ex. 12, 2-methoxy-(E,E)-4,6-bis[4′-hydroxy-3′-(N,N-dimethylamino)styryl]pyrimidine], the viability at 25 µM in data set [1] is 59 ± 5.7%. On beta amyloid (1-42), this compound came in with a remaining activity at 10 µM of 25.9 ± 7.3%. Also, in the data set on HT-22 cells, the “Cell Survival (%)” value is 96.6 ± 13.7%.

As to `COc1nc(/C=C/c2ccc(N(C)C)c(O)c2)cc(/C=C/c2ccc(N(C)C)c(O)c2)n1` [Ex. 13, 2-methoxy-(E,E)-4,6-bis[3′-hydroxy-4′-(N,N-dimethylamino)styryl]pyrimidine], the viability at 25 µM in data set [1] is 67.4 ± 5.1%. Further, the “Inhibitory activity against fibril formation (in words)” value at beta amyloid (1-42) (Table 3) is listed as “remarkable inhibitory activity”. At beta amyloid (1-42), this compound came in with a remaining activity at 10 µM of 9.6 ± 3.7%. The “Cell Survival (%)” value in the data set with HT-22 cells is recorded as 101.4 ± 2.5%.

Consider `CSc1nc(/C=C/c2ccc(N(C)C)c(O)c2)cc(/C=C/c2ccc(N(C)C)c(O)c2)n1` [Ex. 19, 2-methylthio-(E,E)-4,6-bis[3′-hydroxy-4′-(N,N-dimethylamino)styryl]pyrimidine], for which, in data set [1], the viability at 25 µM was 69.7 ± 0.4%. The remaining activity at 10 µM on beta amyloid (1-42) is 11.2 ± 4.2%. For the same compound, the “Cell Survival (%)” value in the data set with HT-22 cells amounted to 85.3 ± 8.1%.

As to `COc1nc(/C=C/c2ccc(O)c(OC)c2)cc(/C=C/c2ccc(O)c(OC)c2)n1` [Ex. 10, 2-methoxy-(E,E)-4,6-bis(4′-hydroxy-3′-methoxystyryl)pyrimidine], the viability at 25 µM in data set [1] amounted to 71.7 ± 14.8%. The remaining activity at 10 µM on beta amyloid (1-42) is 32 ± 11.6%. In the data set on HT-22 cells, the “Cell Survival (%)” value stood at 75.2 ± 12.5%.

`COc1ccc(/C=C/c2cccc(/C=C/c3ccc(OC)c(O)c3)c2)cc1O` [Ex. 3, (E,E)-1,3-Bis(3′-hydroxy-4′-methoxystyryl)benzene]: the viability at 25 µM in data set [1] is 54.7 ± 5.3%. Further, the remaining activity at 10 µM on beta amyloid (1-42) came out at 32.1 ± 1.1%. In the data set on HT-22 cells, the “Cell Survival (%)” value came out at 69.5 ± 4.2%.

Take `COc1cc(/C=C/c2cc(O)cc(/C=C/c3ccc(O)c(OC)c3)c2)ccc1O` [Ex. 24, (E,E)-3,5-bis(4′-hydroxy-3′-methoxystyryl)phenol]: the viability at 25 µM in data set [1] turned out to be 39.9 ± 9.5%. In addition, on beta amyloid (1-42), the remaining activity at 10 µM was 21 ± 2.4%. Also, the “Cell Survival (%)” value in the data set with HT-22 cells came to 80.9 ± 13.1%.

Regarding `COc1nc(/C=C/c2ccc(OC)c(O)c2)cc(/C=C/c2ccc(OC)c(O)c2)n1` [Ex. 11, 2-methoxy-(E,E)-4,6-bis(3′-hydroxy-4′-methoxystyryl)pyrimidine], the viability at 25 µM in data set [1] was found to be 66.2 ± 11.5%. This compound registered a remaining activity at 10 µM at beta amyloid (1-42) of 45 ± 9.2%. For the same compound, the “Cell Survival (%)” value in the data set on HT-22 cells stood at 98.4 ± 2.7%.

As for `Oc1cccc(/C=C/c2cc(/C=C/c3cccc(O)c3)ncn2)c1` [Ex. 5, (E,E)-4,6-bis(3′-hydroxystyryl)pyrimidine], in data set [1], the viability at 25 µM is 43.5 ± 13.4%. In addition, at beta amyloid (1-42), the remaining activity at 10 µM amounted to 85.9 ± 19.7%. The “Cell Survival (%)” value in the data set on HT-22 cells was found to be 142.5 ± 5.6%.

Regarding `CSc1nc(/C=C/c2ccc(O)c(N(C)C)c2)cc(/C=C/c2ccc(O)c(N(C)C)c2)n1` [Ex. 18, 2-methylthio-(E,E)-4,6-bis[4′-hydroxy-3′-(N,N-dimethylamino)styryl]pyrimidine], the viability at 25 µM in data set [1] was found to be 50.9 ± 5.7%. This compound came in with a remaining activity at 10 µM on beta amyloid (1-42) of 21.4 ± 10.3%. In the data set with HT-22 cells, the “Cell Survival (%)” value turned out to be 77.3 ± 15.1%.

For `COc1nc(/C=C/c2ccc(O)cc2)cc(/C=C/c2ccc(O)cc2)n1` [Ex. 8, 2-methoxy-(E,E)-4,6-bis(4′-hydroxystyryl)pyrimidine], the viability at 25 µM in data set [1] was found to be 100 ± 7%. Also, the remaining activity at 10 µM at beta amyloid (1-42) was determined as 32.6 ± 7.3%. Further, the “Cell Survival (%)” value in the data set with HT-22 cells turned out to be 101.2 ± 31.8%.

With `Oc1ccc(/C=C/c2cc(O)cc(/C=C/c3ccc(O)cc3)c2)cc1` [Ex. 22, (E,E)-3,5-bis(4′-hydroxystyryl)phenol], the viability at 25 µM in data set [1] was 50.6 ± 10.1%. This compound also had a remaining activity at 10 µM at beta amyloid (1-42) of 19.3 ± 1.1%. Also, the “Cell Survival (%)” value in the data set on HT-22 cells amounted to 37.4 ± 4.7%.
